Test results from US20260144798A1, “Disruption of Vascular Smooth Muscle Relaxation by Carfilzomib May be the Primary Reason for CFZ-Induced Vascular Dysfunction” (AMGEN INC., priority 2019, published 2026).
Like-named read-outs stand apart in the source and are kept apart here.

Assays:
rat aortic rings [1] = assay: Angiotensin induced contraction (AUC) of rat aortic rings; conditions: inhibitor 10 mins before 2.7 μM CFZ 1.5 hour; 30 nM Angiotensin (FIG. 11)
Description: Aortas were isolated from 8-10 week old CD® (Sprague Dawley) rats (from Charles River Laboratories) in an ice-cold, oxygenated (95% O2, 5% CO2) Krebs-Henseleit buffer. The aortas were then carefully cleaned to remove perivascular fat and cut into 2-mm rings that were mounted between two stainless steel wires in the myograph chamber containing 8 mL of Krebs-Henseleit buffer in 95% O2 and 5% CO2 at 37° C. Rings were stretch until a final stretch of 10 mN (Newton) was reached and incubated for 30 mins for equilibration. The rings were constricted with 8 mL of 80 mM KPSS for 15 minutes, followed by 3 washes with the Krebs-Henseleit buffer until the force returned to the baseline stretch. The aorta were then treated for one of the following experiments: • For protein expression studies the aortic rings were pre-treated with 100 μM N(gamma)-nitro-L-arginine methyl ester (L-NAME; Sigma-Aldrich) and 10 μM indomethacin for 10 minutes prior to the pre-incubation with CFZ (Amgen Inc.) for 1.5 hours.
Following the two incubation the rings were treated with either vehicle or 2.7 μM CFZ for further 1.5 hours before addition of 30 nM Angiotensin for 30 min. Angiotensin induced transient contraction which returned to the baseline in 30 mins. Area Under the Curve (AUC) of angiotensin induced contraction was measured.
Aortic rings were incubated for 10 min with 100 μM LNAME+10 μM indomethacin (endothelium derived relaxing agents blockers) for 10 mins followed by addition of 10 μM SB 203580 (p38 inhibitor) or PF3644022 (MAPKAPK-2 inhibitor) in some rings for 10 more mins as indicated. This was followed by addition of 2.7 μM CFZ in some rings as indicated for 1.5 hour. 30 nM Angiotensin was added for 30 min. Angiotensin induced transient contraction which returned to the baseline in 30 mins.

rat aortic rings [2] = assay: Acetylcholine-induced relaxation of phenylephrine-precontracted rat aortic rings; conditions: for prevention of CFZ induced vascular dysfunction in the presence of ACh: inhibitor 10 mins before 2.7 μM CFZ for 1 hour, 1 μM Phenylephrine precontraction (FIG. 8A, 9A); for EC50 for ACh-induced relaxation, CFZ in combination with PDE5 inhibitor: PDE5 inhibitor 30 nM, 10-minute pre-treatment before CFZ, CFZ alone 7.3×10^−8, vehicle alone 1.9×10^−8 (FIG. 5B)
Description: (§2) For assessment of the effect of CFZ on vascular relaxation, the pre-treated aortic rings were incubated with 1 μM PE for 20 minutes to induce contraction. For experiments involving sildenafil and tadalafil, a 10-minute pre-treatment with 30 nM of these smooth muscle relaxants was done prior to the incubation with CFZ. After reaching a stable contraction, ACh, sodium nitroprusside (SNP), nifedipine, riociguat, or cinaciguat was added to the chamber at an increasing concentration from 100 pM to 10 μM; each stepwise concentration increase was added after the response to the current concentration reached a plateau. The relaxation was continuously measured and plotted as percent relaxation normalized to the response with 1 μM PE.
(§3) Aortas were isolated from 8-10 week old CD® (Sprague Dawley) rats (from Charles River Laboratories) in an ice-cold, oxygenated (95% O2, 5% CO2) Krebs-Henseleit buffer. The aortas were then carefully cleaned to remove perivascular fat and cut into 2-mm rings that were mounted between two stainless steel wires in the myograph chamber containing 8 mL of Krebs-Henseleit buffer in 95% O2 and 5% CO2 at 37° C. Rings were stretch until a final stretch of 10 mN (Newton) was reached and incubated for 30 mins for equilibration.

rat aortic rings [3] = assay: Sodium nitroprusside-induced relaxation of phenylephrine-precontracted rat aortic rings; conditions: for prevention of CFZ induced vascular dysfunction in the presence of SNP: inhibitor 10 mins before 2.7 μM CFZ for 1 hour, 1 μM Phenylephrine precontraction (FIG. 8B, 9B)
Description: as §2, §3

rat aortic rings [4] = assay: sGC activator (cinaciguat, riociguat)-induced relaxation of rat aortic rings; conditions: Rattus norvegicus
Description: An isometric myograph (DMT 620M) was used for ex vivo measurement of vascular function. Eight-to 10-week old Sprague Dawley rats (purchased from Charles River Laboratories, Wilmington, MA) were first anesthetized with 3% isoflurane and then euthanized using inhaled desflurane. The aortas were isolated in an ice-cold, oxygenated (95% O2, 5% CO2) Krebs-Henseleit buffer (118.3 mM NaCl, 4.7 mM KCl, 1.2 mM MgSO4, 1.2 mM KH2PO4, 2.5 mM CaCl2, 25 mM NaHCO3, and 11.0 mM glucose; purchased from Sigma-Aldrich, St. Louis, MO). The thoracic aorta was carefully cleaned to remove perivascular fat and cut into 2-mm rings that were mounted between two stainless steel wires in the myograph chamber containing 8 mL of Krebs-Henseleit buffer in 95% O2 and 5% CO2 at 37° C. First, the rings were equilibrated in the chamber for 20 minutes, followed by a gradual increase of mechanical stretch until a final stretch of 10 mN (Newton) was reached. After an additional incubation with fresh buffer for 30 minutes, the rings were constricted with 8 mL of 80 mM KPSS (43 mM NaCl, 80 mM KCl, 2.5 mM CaCl2, 1.2 mM MgSO4, 1.2 mM KH2PO4, 25.0 mM NaHCO3, and 11.0 mM glucose) for 15 to 20 minutes, followed by 3 washes with the Krebs-Henseleit buffer until the force returned to the baseline stretch. The tension of the aortic rings was continuously measured with the Lab Chart 7 data acquisition system (ADInstruments, Colorado Springs, CO). […] The tension of the aortic rings was continuously measured with the Lab Chart 7 data acquisition system (ADInstruments, Colorado Springs, CO).
(§1) To assess the effect of CFZ on vascular contraction, the aortic rings were pre-treated with or without CFZ for 2 hours, followed by treatment with an increasing concentration of phenylephrine (PE) from 10 nM to 1 μM. […] The contraction was continuously measured and plotted as percent contraction normalized to the response of KPSS. […] The relaxation was continuously measured and plotted as percent relaxation normalized to the response with 1 μM PE.

rat aortic rings [5] = assay: Nifedipine-induced relaxation of rat aortic rings; conditions: increasing concentration of nifedipine (FIG. 2C)
Description: An isometric myograph (DMT 620M) was used for ex vivo measurement of vascular function. Eight-to 10-week old Sprague Dawley rats (purchased from Charles River Laboratories, Wilmington, MA) were first anesthetized with 3% isoflurane and then euthanized using inhaled desflurane. The aortas were isolated in an ice-cold, oxygenated (95% O2, 5% CO2) Krebs-Henseleit buffer (118.3 mM NaCl, 4.7 mM KCl, 1.2 mM MgSO4, 1.2 mM KH2PO4, 2.5 mM CaCl2, 25 mM NaHCO3, and 11.0 mM glucose; purchased from Sigma-Aldrich, St. Louis, MO). […] The tension of the aortic rings was continuously measured with the Lab Chart 7 data acquisition system (ADInstruments, Colorado Springs, CO). […]
as §1

rat aortic rings [6] = assay: Basal vascular tone of isolated rat aortic rings, isometric myograph; conditions: 10 μM SB 203580 10 mins before 2.7 μM CFZ for 3 hour; LNAME+indomethacin (FIG. 10)
Description: An isometric myograph (DMT 620M) was used for ex vivo measurement of vascular function. Eight-to 10-week old Sprague Dawley rats (purchased from Charles River Laboratories, Wilmington, MA) were first anesthetized with 3% isoflurane and then euthanized using inhaled desflurane. The aortas were isolated in an ice-cold, oxygenated (95% O2, 5% CO2) Krebs-Henseleit buffer (118.3 mM NaCl, 4.7 mM KCl, 1.2 mM MgSO4, 1.2 mM KH2PO4, 2.5 mM CaCl2, 25 mM NaHCO3, and 11.0 mM glucose; purchased from Sigma-Aldrich, St. Louis, MO). The thoracic aorta was carefully cleaned to remove perivascular fat and cut into 2-mm rings that were mounted between two stainless steel wires in the myograph chamber containing 8 mL of Krebs-Henseleit buffer in 95% O2 and 5% CO2 at 37° C. First, the rings were equilibrated in the chamber for 20 minutes, followed by a gradual increase of mechanical stretch until a final stretch of 10 mN (Newton) was reached. After an additional incubation with fresh buffer for 30 minutes, the rings were constricted with 8 mL of 80 mM KPSS (43 mM NaCl, 80 mM KCl, 2.5 mM CaCl2, 1.2 mM MgSO4, 1.2 mM KH2PO4, 25.0 mM NaHCO3, and 11.0 mM glucose) for 15 to 20 minutes, followed by 3 washes with the Krebs-Henseleit buffer until the force returned to the baseline stretch. The tension of the aortic rings was continuously measured with the Lab Chart 7 data acquisition system (ADInstruments, Colorado Springs, CO). In Some of the experiments the aortic rings were pre-treated with 100 μM N(gamma)-nitro-L-arginine methyl ester (L-NAME; Sigma-Aldrich) and 10 μM indomethacin for 10 minutes prior to the pre-incubation with CFZ (Amgen Inc.) for 2 hours. After an additional incubation with fresh buffer for 30 minutes, the rings were constricted with 8 mL of 80 mM KPSS (43 mM NaCl, 80 mM KCl, 2.5 mM CaCl2, 1.2 mM MgSO4, 1.2 mM KH2PO4, 25.0 mM NaHCO3, and 11.0 mM glucose) for 15 to 20 minutes, followed by 3 washes with the Krebs-Henseleit buffer until the force returned to the baseline stretch. The tension of the aortic rings was continuously measured with the Lab Chart 7 data acquisition system (ADInstruments, Colorado Springs, CO).
To assess the effect of CFZ on vascular contraction, the aortic rings were pre-treated with or without CFZ for 2 hours, followed by treatment with an increasing concentration of phenylephrine (PE) from 10 nM to 1 μM. After the maximum contraction was achieved, the aortic rings were washed 3 times until the force returned to baseline. The contraction was continuously measured and plotted as percent contraction normalized to the response of KPSS. […] The relaxation was continuously measured and plotted as percent relaxation normalized to the response with 1 μM PE. […]

**Q.** Which “prevention of CFZ-increased angiotensin induced contraction” value (rat aortic rings [1]) does the source give for Cc1ccc(-c2ccc3c(ccc4sc5c(c43)NC[C@@H](C)NC5=O)n2)cn1 [PF3644022] here?
**A.** prevented

**Q.** What about the “prevention of CFZ induced vascular dysfunction in the presence of ACh” value (rat aortic rings [2]) of the same molecule?
**A.** prevented CFZ induced vascular dysfunction

**Q.** And the “prevention of CFZ induced vascular dysfunction in the presence of SNP” value (rat aortic rings [3])?
**A.** prevented CFZ induced vascular dysfunction

**Q.** CN1CC(=O)N2[C@H](c3ccc4c(c3)OCO4)c3[nH]c4ccccc4c3C[C@@H]2C1=O [tadalafil] was tested. Which “EC50 for ACh-induced relaxation, CFZ in combination with PDE5 inhibitor” value (rat aortic rings [2]) did it give?
**A.** 2.8×10^−8

**Q.** What does the source list for COC(=O)N(C)c1c(N)nc(-c2nn(Cc3ccccc3F)c3ncccc23)nc1N [riociguat]?
**A.** EC50 (rat aortic rings [4]; rings pre-incubated with CFZ (FIG. 4C), read-out: EC50 for relaxation, sGC activator with CFZ): 17 nM; EC50 (rat aortic rings [4]; without CFZ (FIG. 4C), read-out: EC50 for relaxation, sGC activator alone): 18 nM

**Q.** For COC(=O)C1=C(C)NC(C)=C(C(=O)OC)C1c1ccccc1[N+](=O)[O-] [nifedipine], which “plateau of vascular relaxation” value (rat aortic rings [5]) is on record?
**A.** around 50%

**Q.** How did the “reversal of CFZ effect on VSM relaxation in the presence of ACh” value (rat aortic rings [2]; 30 nM pre-treatment 10 minutes before CFZ (FIG. 5B)) turn out when CCCc1nn(C)c2c(=O)[nH]c(-c3cc(S(=O)(=O)N4CCN(C)CC4)ccc3OCC)nc12 [sildenafil] was run?
**A.** reversed the CFZ effect on VSM relaxation

**Q.** What about the “EC50 for ACh-induced relaxation, CFZ in combination with PDE5 inhibitor” value (rat aortic rings [2]) of the same molecule?
**A.** 2.8×10^−8

**Q.** And the “reversal of CFZ effect on VSM relaxation in the presence of SNP” value (rat aortic rings [3]; 30 nM pre-treatment 10 minutes before CFZ (FIG. 5A))?
**A.** reversed the CFZ effect on VSM relaxation

**Q.** What does the source list for C[S+]([O-])c1ccc(-c2nc(-c3ccncc3)c(-c3ccc(F)cc3)[nH]2)cc1 (centres unmarked) [SB203580]?
**A.** prevention of CFZ induced increase in vascular tone (rat aortic rings [6]): completely prevented; prevention of CFZ-increased angiotensin induced contraction (rat aortic rings [1]): prevented; prevention of CFZ induced vascular dysfunction in the presence of ACh (rat aortic rings [2]): prevented CFZ induced vascular dysfunction; prevention of CFZ induced vascular dysfunction in the presence of SNP (rat aortic rings [3]): prevented CFZ induced vascular dysfunction
